According to US8629241B2, “Alpha helical mimics, their uses and methods for their production” (The University of Queensland, priority 2004, dated 2014):
Each block holds one compound with its values, some of them ahead of it. Where a SMILES comes first, the peptide text is derived from it. Bridges are numbered along the chain shown (N, C = ends). [ ]: non-standard residue; d: D form. hArg = N=C(N)NCCCC[C@H](N)C(=O)O; Flu = fluorescein; βAla = NCCC(=O)O; Mpa = O=C(O)CCS

Assays:
[1] = format: physicochemical; details: for θ222/θ208 / [θ]192 / [θ]208 / [θ]222: Table 8; for [θ]192 / [θ]208 / [θ]222: one or more cyclic pentapeptide modules versus linear peptides; for % helicity: fH × 100, [θ∞H]222 = −44000, k = 2.6
Procedure: Circular Dichroism (CD) was performed on peptides having SEQ ID NOs: 8 to 14 and 18 to 31, using methods described above. The molar elipticities at 222 nm, 208 nm and 190 nm, ratios of elipticities at 222 nm/208 nm and relative helicity are shown in Tables 6 and 7.
Assuming that mean alpha helix content (fH) is linearly related to elipticity at 222 nm, or in our case 215 nm ([θ]obs215), then the equation for calculating helix content is: fH=([θ]obs215−[θ]C)/([θ]∞215−[θ]C) (1) Luo and Baldwin^22 determined that the random coil ([θ]C) and infinite alpha helix ([θ]∞222) molar elipticities are temperature dependent based on the equations: [θ]C=2220−53T (2a) [θ]∞215=(−44000+250T)(1−k/Np) (2b) where T is temperature in degrees Celsius, Np is the number of peptide units, and k is a finite length correction.
CD was performed on peptides having one [SEQ ID NO: 8] or more than one modular macrocycle [SEQ ID NOs: 46 and 47], as compared with corresponding linear peptides, Ac[KARAD]n—NH2 where n=1 [SEQ ID NO: 14], n=2 [SEQ ID NO: 54] and n=3 [SEQ ID NO: 55]. The molar elipticities at 222 nm, 208 nm and 190 nm, ratios of elipticities at 222 nm/208 nm and percentage helicity are shown in Table 8.
(§1) CD experiments were performed on a Jasco Model J-710 spectropolarimeter which was routinely calibrated with (1S)-(+)-10-camphorsulfonic acid. Temperature control was achieved using a Neslab RTE-111 circulating water bath. Spectra were recorded in a 0.1 cm Jasco cell between 310-185 nm at 50 nm/min with a band width of 1.0 nm, response time of 2 sec, resolution step width of 0.1 nm and sensitivity of 20, 50 or 100 mdeg. Each spectrum represents the average of 5 scans with smoothing to reduce noise. Peptide samples for CD spectroscopy were dissolved in distilled water (˜1 mg/mL). Each stock solution was diluted to a final concentration of 50 μM in 10 mM sodium phosphate buffer (pH7.4), with or without additives (2,2,2-trifluoroethanol (TFE) or guanidine.HCl). Guanidine.HCl denaturation experiments were performed according to Creighton^105.
1D ^1H NMR spectra were then recorded with presaturation and a relaxation delay (d1) of 30 seconds to allow for full relaxation of peptide and DSS^1H signals to facilitate accurate integration of proton signals with S/N>250:1. This method provides reproducible concentrations within ±2%.
CD data in ellipticity was converted to mean peptide ellipticity using the equation: [θ]=θ/(10×C×Np×1) where θ is the ellipticity in millidegrees, C is the peptide molar concentration (M), 1 is the cell path length (cm), and Np is the number of peptide units (ie. pentapeptides […], 10 & 11 Np=5, 12 Np=4.)
Relative helicities were employed to allow scaling of compounds by dividing the [θ]obs215(8)/[θ]obs215(x) for pentapeptides, and [θ]obs215(24)/[θ]obs215(x) for hexapeptides.

[2] = tested on: trypsin; assay: in vitro; format: in vitro ADME; details: isolated enzyme trypsin, pH 8
Procedure: Solutions of SEQ ID NO: 46 (25 μM) and linear peptide SEQ ID NO: 54 (26 μM) were incubated with trypsin (1 μg/mL) in 25 mM ammonium carbonate buffer (pH=8) at room temperature. Aliquots were taken at 30 seconds, 1 minute, 5 minutes, 15 minutes, 30 minutes, 1 hour and 2 hours, and diluted with an equivalent volume of 3% trifluoroacetic acid. The resultant solutions were analyzed using a 2×75 mm, 3 μm, Aqua C-18 column (Phenomenex) equilibrated in aqueous formic acid (0.1%). Peptide cleavage products were eluted using a linear gradient of acetonitrile from 0 to 80% in aqueous 0.01% formic acid over 20 minutes at a rate of 300 μL/min. Rate of degradation of either SEQ ID NO: 32 or SEQ ID NO: 43 was quantified by determining extracted ion counts of chromatograms relative to control solutions (containing no enzyme) using a QSTAR PULSAR Electrospray QqTOF Mass Spectrometer and analyzed using BioMultiview (SCIEX Software). Retention time of SEQ ID NO: 46=11.64 minutes. Retention time of linear peptide SEQ ID NO: 54=7.43 minutes. SEQ ID NO: 46 was also found to be highly resistant to proteolytic cleavage by trypsin (97% recovered intact after 2 h), whereas the linear peptide […] (SEQ ID NO: 54) was completely degraded within 30 seconds.

[3] = phase III; patients at risk of abrupt vessel closure after coronary angioplasty; cited from earlier work
[4] = Stability against denaturants (guanidine.HCl, temperature) followed by CD; format: physicochemical; details: 8M guanidinium chloride, 25° C
Procedure: Proteolytic stability of the helix. trypsin digestion
The helical macrocycles were conformationally very stable even under protein-denaturing conditions, as illustrated by the low dependence of their CD spectra on temperature between 5-65° C. (FIG. 9a) and on the concentration of guanidine.HCl (FIG. 9b).
as §1

[5] = tested on: trypsin; assay: Proteolytic stability of the helix, trypsin digestion (Example 10); format: in vitro ADME; details: pH 8.2, room temperature, 1 to 155 minutes
Procedure: A standard solution of Ac—KARAD-NH2 and Ac—(cyclo-1,5)-KARAD-NH2 (1 mg/mL) was prepared in 100 mM ammonium carbonate buffer at pH˜8.2. To 100 μL of each solution was added 1 mg/mL of trypsin (1 μL). The digest was conducted at room temperature with 5 μL aliquots taken at 1, 4, 8, 28, 48, 55, 110, 155 minutes. Aliquots were diluted with 5 μL of 3% TFA to stop the reaction. and analyzed by LC-MS using 2.1×150 mm Phenomenex 300 Å C18 5 μm column, with a 3% per minute linear gradient of 0-60% acetonitrile over 20 minutes. The amount of starting material left in each sample was quantified by determination of total ion counts for the molecular ion.
Compound of SEQ ID NO 8 and its acyclic version SEQ ID NO: 14 were incubated with trypsin (pH 8.2), aliquots removed at intervals between 1 and 155 minutes, and analyzed by LCMS. […] Similarly the cyclic compound 8 was not degraded by human serum (1 h, 37° C.). […] This is consistent with other observations that only an extended or linear peptide conformation is recognized, not only by trypsin, but by all proteolytic enzymes^125 Presumably the cycle is too tightly locked into an alpha helical turn to permit significant unwinding to the extended format needed for recognition by trypsin.

[6] = Serum stability; format: in vitro ADME; details: 1 h, 37° C
Procedure: Standard solutions of Ac—KARAD-NH2 and Ac—(cyclo-1,5)-KARAD-NH2 (1 mg/mL) were prepared in water. 200 μL of each peptide was added to human serum 800 μL and incubated at 37° C. Acetonitrile/water 3:1 (300 μL) was added to aliquots (100 μL) of serum at 5, 15, 30, 45 and 60 minutes to precipitate serum proteins, which were removed by centrifugation. The decanted supernatant was analyzed by LC-MS MS with a 2.1×150 mm Phenomenex 300 Å C18 5 um column, using a 3% per minute linear gradient from 0%-60% acetonitrile over 20 minutes. The amount of starting material left in each sample was quantified by determination of total ion counts for the molecular ion.

[7] = target: T1, MDM2 (Homo sapiens, UniProt Q00987); details: read-out: dissociation constant; cited from earlier work
[8] = target: Bcl-xL (Homo sapiens, UniProt Q07817); details: read-out: dissociation constant; cited from earlier work
[9] = target: Bcl-2 (Homo sapiens, UniProt P10415); details: read-out: dissociation constant; cited from earlier work
[10] = target: thrombin (Homo sapiens, UniProt P00734); details: cited from earlier work
[11] = target: trypsin; details: cited from earlier work
[12] = target: T1, MDM2; details: cited from earlier work

T1 sequence (Q00987 whole entry): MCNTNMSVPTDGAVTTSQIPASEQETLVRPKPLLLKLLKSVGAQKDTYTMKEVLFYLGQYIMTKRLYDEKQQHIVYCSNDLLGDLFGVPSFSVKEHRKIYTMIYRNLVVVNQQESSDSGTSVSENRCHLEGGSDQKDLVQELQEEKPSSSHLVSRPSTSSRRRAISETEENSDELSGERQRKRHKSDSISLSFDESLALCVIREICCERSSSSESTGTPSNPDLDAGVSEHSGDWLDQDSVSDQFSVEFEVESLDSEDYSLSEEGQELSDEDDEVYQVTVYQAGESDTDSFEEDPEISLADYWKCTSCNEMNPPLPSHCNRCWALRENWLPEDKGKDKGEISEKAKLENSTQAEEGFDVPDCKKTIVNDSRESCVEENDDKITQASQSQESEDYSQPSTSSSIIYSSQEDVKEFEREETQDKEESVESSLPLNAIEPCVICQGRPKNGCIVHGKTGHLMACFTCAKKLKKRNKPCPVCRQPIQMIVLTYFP
Chain of Bcl-2 (P10415 whole entry, species assumed): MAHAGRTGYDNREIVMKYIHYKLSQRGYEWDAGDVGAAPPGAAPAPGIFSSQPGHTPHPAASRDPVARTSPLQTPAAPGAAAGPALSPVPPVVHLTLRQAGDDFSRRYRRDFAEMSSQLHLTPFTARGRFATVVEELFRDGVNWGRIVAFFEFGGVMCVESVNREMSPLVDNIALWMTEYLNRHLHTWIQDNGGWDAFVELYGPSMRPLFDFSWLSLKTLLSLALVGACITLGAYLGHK
Chain of Bcl-xL (Q07817 whole entry, species assumed): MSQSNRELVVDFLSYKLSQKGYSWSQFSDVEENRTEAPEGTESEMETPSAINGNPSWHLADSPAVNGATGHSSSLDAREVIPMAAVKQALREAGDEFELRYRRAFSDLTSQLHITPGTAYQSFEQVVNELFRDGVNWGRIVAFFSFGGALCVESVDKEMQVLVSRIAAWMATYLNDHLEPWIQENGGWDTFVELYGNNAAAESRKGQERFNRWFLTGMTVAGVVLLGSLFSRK

θ222/θ208 [1]: 1.29
[θ]192 [1]: 104187 degcm^2dmol^−1residue^−1
[θ]208 [1]: −24957 degcm^2dmol^−1residue^−1
[θ]222 [1]: −32340 degcm^2dmol^−1residue^−1
% helicity [1]: 99%
remaining at 2 h, 25 μM [2]: 97%
Compound: CC(=O)N[C@H]1CCCCNC(=O)C[C@@H](C(=O)N[C@H]2CCCCNC(=O)C[C@@H](C(N)=O)NC(=O)[C@H](C)NC(=O)[C@H](CCCNC(=N)N)NC(=O)[C@H](C)NC2=O)NC(=O)[C@H](C)NC(=O)[C@H](CCCNC(=N)N)NC(=O)[C@H](C)NC1=O [SEQ ID NO: 46] (Ac-KARADKARAD-NH2; lactam 1-5, 6-10)

Compound: N=C(N)NCCCC[C@@H]1NC(=O)CCSSC[C@@H](C(N)=O)NC(=O)[C@@H]2CCCN2C(=O)[C@H](Cc2c[nH]c3ccccc23)NC(=O)[C@H](CC(=O)O)NC(=O)CNC1=O [eptifibatide] ([Mpa][hArg]GDWPC-NH2; disulfide 1-7)
incidence of cardiac events [3]: reduce the incidence of cardiac events

molar elipticity at 215 nm in helix stabilizing solvent [1]: does not increase
θ222/θ208 [1]: 0.98
[θ]192 [1]: 52191 degcm^2dmol^−1residue^−1
[θ]208 [1]: −17039 degcm^2dmol^−1residue^−1
[θ]222 [1]: −15464 degcm^2dmol^−1residue^−1
Relative helicity ([1]; [θ]215 relative to SEQ ID NO: 8, 10 mM phosphate buffer, pH 7.4, 25° C): 1.00
percentage helicities ([1]; equation 2b with k˜4, assuming 8 has 100% helicity): 100%
% helicity [1]: 79%
helicity on variation of the k factor ([1]; k factor from 2.4 to 4.5): 56-135%
[θ]190 ([1]; molar elipticity at 190 nm, 10 mM phosphate buffer, pH 7.4, 25° C): 38300 deg.cm^2.dmol^−1.residue^−1
[θ]207 ([1]; molar elipticity at 207 nm, 10 mM phosphate buffer, pH 7.4, 25° C): −12211 deg.cm^2.dmol^−1.residue^−1
[θ]215 ([1]; molar elipticity at 215 nm, 10 mM phosphate buffer, pH 7.4, 25° C): −12757 deg.cm^2.dmol^−1.residue^−1
θ215/θ207 ([1]; ratio of elipticities, 10 mM phosphate buffer, pH 7.4, 25° C): 1.04
alpha helicity (molar elipticity at 215 nm) in denaturant [4]: maintains full alpha helicity
stability to trypsin (starting material left, LCMS) [5]: remained intact
degradation by human serum [6]: not degraded
Compound: CC(=O)N[C@H]1CCCCNC(=O)C[C@@H](C(N)=O)NC(=O)[C@H](C)NC(=O)[C@H](CCCNC(=N)N)NC(=O)[C@H](C)NC1=O [SEQ ID NO: 8, Ac-(cyclo-1,5)-[KARAD]-NH2] (Ac-KARAD-NH2; lactam 1-5)

Compound: Ac—FR(Dpr-Flu)(Ac6c)(6-Br—W)EEL-NH2
Kd [7]: 2 nM

Compound: Flu-βANLWAAQRYGRELRRMSDKKFVDSFKK-NH2 ({Flu-βAla}-ANLWAAQRYGRELRRMSDKKFVDSFKK-NH2)
Kd [8]: 0.6 nM
Kd [9]: 3 nM

Compound: N=C(N)NCCC[C@@H]1NC(=O)[C@@H]2CCCN2C(=O)[C@@H](NC=O)CNC(=O)/C=C/C(Cc2ccc(O)cc2)NC(=O)[C@@H](Cc2ccccc2)NC(=O)C1=O (some centres unmarked) [Cyclotheonamide A]
Ki [10]: 180 nM
Ki [11]: 23 nM

Compound: Acetyl-Phe-Met-Aib-Pmp-6C1W-Glu-Ac3c-Leu-NH2
IC50 [12]: 5 nM
